≈ marks a conversion by molar mass, not a printed value.

Drawing on ChEMBL document CHEMBL1777730, “Antimycobacterial activity of novel 1,2,4-oxadiazole-pyranopyridine/chromene hybrids generated by chemoselective 1,3-dipolar cycloadditions of nitrile oxides” (2011), this text covers MIC for 24 compounds.

For this test, the system named is Mycobacterium tuberculosis. Nature of the test: Antimycobacterial activity against Mycobacterium tuberculosis H37Rv by agar dilution method. In kind it is functional.

The MIC is the smallest concentration in the dilution series that meets the test's criterion for growth inhibition. High values mean a less susceptible organism, low ones a more susceptible organism. `CN1CC2=C(OC(N)=C(c3nc(-c4ccc(Cl)cc4)no3)C2c2ccccc2)/C(=C/c2ccccc2)C1` (centres undefined) registered a minimum inhibitory concentration (MIC) of 12.3 µM (≈ 6.25 µg/mL). This counts as double-digit micromolar.
For `CN1CC2=C(OC(N)=C(c3nc(-c4ccc(Cl)cc4)no3)C2c2ccc(Cl)cc2)/C(=C/c2ccc(Cl)cc2)C1` (centres undefined), the MIC came out at 0.35 µM (≈ 0.202 µg/mL).
The figure for `Cc1ccc(/C=C2\CN(C)CC3=C2OC(N)=C(c2nc(-c4ccc(Cl)cc4)no2)C3c2ccc(C)cc2)cc1` (centres undefined) is 3.28 µM (≈ 1.76 µg/mL).
`COc1ccc(/C=C2\CN(C)CC3=C2OC(N)=C(c2nc(-c4ccc(Cl)cc4)no2)C3c2ccc(OC)cc2)cc1` (centres undefined): inhibition of growth (MIC) required 22 µM (≈ 12.5 µg/mL).
With `Cc1ccccc1/C=C1\CN(C)CC2=C1OC(N)=C(c1nc(-c3ccc(Cl)cc3)no1)C2c1ccccc1C` (centres undefined), the MIC stood at 11.6 µM (≈ 6.25 µg/mL). This MIC is about 1.9-fold lower than that of the compound before.
`COc1ccccc1/C=C1\CN(C)CC2=C1OC(N)=C(c1nc(-c3ccc(Cl)cc3)no1)C2c1ccccc1OC` (centres undefined): the lowest concentration to inhibit growth (MIC) was 5.5 µM (≈ 3.13 µg/mL).
On to `CN1CC2=C(OC(N)=C(c3nc(-c4ccc(Cl)cc4)no3)[C@@H]2c2cccc(F)c2)/C(=C/c2cccc(F)c2)C1`, for which inhibition of growth (MIC) required 0.73 µM (≈ 0.398 µg/mL). This MIC is about 7.5-fold lower than that of the compound before.
The compound `CN1CC2=C(OC(N)=C(c3nc(-c4ccc(Cl)cc4)no3)C2c2ccc(Cl)cc2Cl)/C(=C/c2ccc(Cl)cc2Cl)C1` (centres undefined) displayed a minimal inhibitory concentration (MIC) of 0.31 µM (≈ 0.201 µg/mL).
In turn, `CN1CC2=C(OC(N)=C(c3nc(-c4ccc(Cl)cc4)no3)C2c2ccc(N(C)C)cc2)/C(=C/c2ccc(N(C)C)cc2)C1` (centres undefined) yielded an MIC of 5.26 µM (≈ 3.13 µg/mL).
The figure for `NC1=C(c2nc(-c3ccccc3)no2)C(c2ccc(Cl)cc2)C2=C(O1)/C(=C/c1ccc(Cl)cc1)CCC2` (centres undefined) is 23.7 µM (≈ 12.5 µg/mL); for `COc1ccc(/C=C2\CCCC3=C2OC(N)=C(c2nc(-c4ccccc4)no2)[C@@H]3c2ccc(OC)cc2)cc1` it is 24.1 µM (≈ 12.5 µg/mL).
The compound `NC1=C(c2nc(-c3ccccc3)no2)C(c2ccc(F)cc2)C2=C(O1)/C(=C/c1ccc(F)cc1)CCC2` (centres undefined) displayed an MIC of 12.6 µM (≈ 6.26 µg/mL).
The compound `Cc1ccccc1/C=C1\CCCC2=C1OC(N)=C(c1nc(-c3ccccc3)no1)C2c1ccccc1C` (centres undefined) gave a minimum inhibitory concentration (MIC) greater than 25 µM.
The figure for `COc1ccccc1/C=C1\CCCC2=C1OC(N)=C(c1nc(-c3ccccc3)no1)C2c1ccccc1OC` (centres undefined) is 24.1 µM (≈ 12.5 µg/mL); for `NC1=C(c2nc(-c3ccccc3)no2)C(c2cccc(F)c2)C2=C(O1)/C(=C/c1cccc(F)c1)CCC2` (centres undefined) it is 12.6 µM (≈ 6.26 µg/mL).
In turn, `N#CC1=C(N)OC2=C(CCC/C2=C\c2ccccc2)C1c1ccccc1` (centres undefined) gave an MIC greater than 25 µM.
Turning to `N#CC1=C(N)OC2=C(CCC/C2=C\c2ccc(Cl)cc2)C1c1ccc(Cl)cc1` (centres undefined), the MIC is greater than 25 µM.
`Cc1ccc(/C=C2\CCCC3=C2OC(N)=C(C#N)C3c2ccc(C)cc2)cc1` (centres undefined) returned an MIC greater than 25 µM.
In turn, `COc1ccc(/C=C2\CCCC3=C2OC(N)=C(C#N)C3c2ccc(OC)cc2)cc1` (centres undefined) yielded an MIC greater than 25 µM.
`N#CC1=C(N)OC2=C(CCC/C2=C\c2ccc(F)cc2)C1c1ccc(F)cc1` (centres undefined): the minimum inhibitory concentration (MIC) was greater than 25 µM.
Compound `N#CC1=C(N)OC2=C(CCC/C2=C\c2ccccc2Cl)C1c1ccccc1Cl` (centres undefined) came in with an MIC greater than 25 µM.
In turn, `CC[C@@H](CO)NCCN[C@@H](CC)CO` [ETHAMBUTOL] yielded a minimum inhibitory concentration (MIC) of 7.64 µM (≈ 1.56 µg/mL). In other words, the single-digit micromolar range.
In turn, `NNC(=O)c1ccncc1` [ISONIAZID] had a minimal inhibitory concentration (MIC) of 0.36 µM (≈ 0.0494 µg/mL).
As for `CO[C@H]1/C=C/O[C@@]2(C)Oc3c(C)c(O)c4c(O)c(c(/C=N/N5CCN(C)CC5)c(O)c4c3C2=O)NC(=O)/C(C)=C\C=C\[C@H](C)[C@H](O)[C@@H](C)[C@@H](O)[C@@H](C)[C@H](OC(C)=O)[C@@H]1C` [RIFAMPIN], the minimum inhibitory concentration (MIC) turned out to be 0.12 µM (≈ 0.0988 µg/mL).
